The structures appear in SMILES notation.

One assay relates to PMA-differentiated THP-1 cells. In words: IL-1β production in PMA-differentiated THP-1 cells stimulated with gramicidin (hTHP-1 assay containing 2% fetal bovine serum; Procedures 1 and 2). Format: cell-based, human. Particulars: Homo sapiens, THP-1, Table B1; 2% fetal bovine serum; class symbols; read-out: Average IC50 of compounds in hTHP-1 assay: hTHP-1 IC50. An outline of the steps:
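Secreted IL-1β, read by HTRF, after gramicidin challenge (5 μM, 2 h) of THP-1 cells differentiated with PMA (20 ng/ml, 16-18 h) and plated at 50,000 cells/well in 2% FBS medium. Compounds, 0.0017-100 μM final with 0.37% DMSO, were added 1 h before stimulation.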
Broadly, the IC50 is the point on the concentration scale where inhibition reaches its midpoint. As for `Cc1sc(S(N)(=O)=NC(=O)Nc2c3c(nc4c2CCC4)CCC3)cc1C(C)(C)O` (stereo not shown) [Compound 107, N′-((1,2,3,5,6,7-hexahydrodicyclopenta[b,e]pyridin-8-yl)carbamoyl)-4-(2-hydroxypropan-2-yl)-5-methylthiophene-2-sulfonimidamide], the IC50 was 0.2 to 1 µM.
`CC1CCc2c1nc1c(c2NC(=O)N=S(N)(=O)c2ccn(C(C)C)n2)CCC1` (stereo not shown) [Compound 129, 1-isopropyl-N′-((3-methyl-1,2,3,5,6,7-hexahydrodicyclopenta[b,e]pyridin-8-yl)carbamoyl)-1H-pyrazole-3-sulfonimidamide]: the IC50 was in the range of 0.2 to 1 µM.

Staying with this assay, now noted: Homo sapiens, THP-1, Table B2; 2% fetal bovine serum; class symbols; read-out: hTHP-1 IC50.
As for `CC(C)(O)c1sc(S(N)(=O)=NC(=O)Nc2c3c(nc4c2CCC4)CCC3)cc1F` (single isomer, unassigned) [Compound 678a, (R) or (S)-4-Fluoro-N′-((1,2,3,5,6,7-hexahydrodicyclopenta [b,e]pyridin-8-yl)carbamoyl)-5-(2-hydroxypropan-2-yl)thiophene-2-sulfonimidamide], the IC50 was in the range of 1 to 5 µM.
Consider `CCc1nc2c(c(NC(=O)N=S(N)(=O)c3sc(C(C)(C)O)cc3F)c1C1CC1)CCC2` (stereo not shown) [Compound 631, N′-((3-cyclopropyl-2-ethyl-6,7-dihydro-5H-cyclopenta[b]pyridin-4-yl)carbamoyl)-3-fluoro-5-(2-hydroxypropan-2-yl)thiophene-2-sulfonimidamide], for which the IC50 was in the range of 0.04 to 0.2 µM.
In the case of `Cc1cc(C(C)(C)O)sc1S(N)(=O)=NC(=O)Nc1c2c(nc3c1CCC3)CCC2` (stereo not shown) [Compound 695, N-((1,2,3,5,6,7-hexahydrodicyclopenta[b,e]pyridin-8-yl)carbamoyl)-5-(2-hydroxypropan-2-yl)-3-methylthiophene-2-sulfonimidamide], the IC50 fell in the range of 5 to 30 µM.
The same measure, in the same setting: as for `Cc1c(C(F)(F)F)nc2c(c1NC(=O)N=[S@](N)(=O)c1cnc(C(C)(C)O)s1)CC[C@H]2C` [Compound 608b], the figure is 5 to 30 µM; as for `Cc1c(C2CC2)nc2c(c1NC(=O)N=S(N)(=O)c1sc(C(C)(C)O)nc1CO)CCC2` (stereo not shown) [Compound 679, N′-((2-cyclopropyl-3-methyl-6,7-dihydro-5H-cyclopenta[b]pyridin-4-yl)carbamoyl)-4-(hydroxymethyl)-2-(2-hydroxypropan-2-yl)thiazole-5-sulfonimidamide], 5 to 30 µM.

Still in this assay, the particulars now being: Homo sapiens, THP-1, Table B2; 2% fetal bovine serum; numeric bounds; read-out: hTHP-1 IC50.
`CC(C)(O)c1ncc(S(N)(=O)=NC(=O)Nc2cc(C(F)F)nc3c2CCC3)s1` (stereo not shown) [Compound 708]: the IC50 was above 30 µM.
As to `NS(=O)(=NC(=O)Nc1c2c(nc3c1CCC3)CCC2)c1ccn(CC(F)(F)F)n1` (single isomer, unassigned) [Compound 685a, (S) or (R)-N′-((1,2,3,5,6,7-hexahydrodicyclopenta [b,e]pyridin-8-yl)carbamoyl)-1-(2,2,2-trifluoroethyl)-1H-pyrazole-3-sulfonimidamide], the IC50 was above 30 µM.

The same assay, now with this note: Homo sapiens, THP-1, Table B3; hTHP-1 assay, 2% fetal bovine serum; class symbols; read-out: IC50.
In the case of `CCn1cc(F)c(S(N)(=O)=NC(=O)Nc2c(C)c(CC(F)(F)F)nc3c2CCC3)n1` (stereo not shown) [Example 619, 1-Ethyl-4-fluoro-N′-((3-methyl-2-(2,2,2-trifluoroethyl)-6,7-dihydro-5H-cyclopenta[b]pyridin-4-yl)carbamoyl)-1H-pyrazole-3-sulfonimidamide], the IC50 is 1 to 5 µM.
`CC(O)c1csc([S@@](N)(=O)=NC(=O)Nc2c3c(nc4c2CC[C@H]4C)CCC3)c1` (stereo partly drawn) [compound 583, (S)-4-(1-hydroxyethyl)-N′-(((R)-3-methyl-1,2,3,5,6,7-hexahydrodicyclopenta[b,e]pyridin-8-yl)carbamoyl)thiophene-2-sulfonimidamide]: the IC50 was in the range of 1 to 5 µM.

The same assay, now with this note: Table B1; 2% fetal bovine serum; class symbols; read-out: Average IC50 of compounds in hTHP-1 assay: hTHP-1 IC50.
As to `Cc1c(C2CC2)nc2c(c1NC(=O)N=S(N)(=O)c1cnc(C(C)(C)O)s1)CCC2` (single isomer, unassigned) [Compound 124b, (R) or (S)-N′-((2-cyclopropyl-3-methyl-6,7-dihydro-5H-cyclopenta[b]pyridin-4-yl)carbamoyl)-2-(2-hydroxypropan-2-yl)thiazole-5-sulfonimidamide], the IC50 lay within 0.2 to 1 µM.
As for `CC1CCc2c1nc1c(c2NC(=O)N=S(N)(=O)c2ncc(C(C)(C)O)s2)CCC1` (single isomer, unassigned) [Compound 140ab, (R,S) or (R,R)-5-(2-hydroxypropan-2-yl)-N′-((3-methyl-1,2,3,5,6,7-hexa-hydrodicyclo-penta[b,e]pyridin-8-yl)carbamoyl)thiazole-2-sulfonimidamide], the IC50 fell in the range of 1 to 5 µM.
Turning to `Cc1sc(S(N)(=O)=NC(=O)Nc2c3c(nc4c2CCC4C)CCC3)nc1C(C)(C)O` (single isomer, unassigned) [Compound 104a, (R,R/S) or (S,R/S)-4-(2-hydroxypropan-2-yl)-5-methyl-N′-((3-methyl-1,2,3,5,6,7-hexahydrodicyclo-penta[b,e]pyridin-8-yl)carba-moyl)thiazole-2-sulfonimidamide], the IC50 fell in the range of 0.2 to 1 µM.
Still for that read-out and setting: the same measure for `CC1CCc2c1nc1c(c2NC(=O)N=S(N)(=O)c2cc(C(C)(C)O)cs2)CCC1C` (single isomer, unassigned) [Compound 131e, (S,S,S) or (S,R,S) and (S,S,R) or (S,R,R)-N′-((3,5-dimethyl-1,2,3,5,6,7-hexahydro-dicyclopenta[b,e]pyridin-8-yl)carbamoyl)-4-(2-hydroxypropan-2-yl)thio-phene-2-sulfonimidamide]: 5 to 30 µM.

The assay is the same for the next values; noted with them: Table B1; 2% fetal bovine serum; numeric bounds; read-out: Average IC50 of compounds in hTHP-1 assay: hTHP-1 IC50.
As to `CC1CCc2c1nc1c(c2NC(=O)N=S(N)(=O)c2ccc(CN(C)C)cc2)CCC1` (single isomer, unassigned) [Compound 134ab, (S,R) or (S,S)-4-((di-methylamino)methyl)-N′-((3-methyl-1,2,3,5,6,7-hexa-hydrodicyclo-penta[b,e]pyridin-8-yl)carbamoyl)benzene-sulfonimidamide], the IC50 is above 30 µM.

Still in this assay, the particulars now being: Table B2; 2% fetal bovine serum; class symbols; read-out: hTHP-1 IC50.
For `Cc1c(C(C)C)nc2c(c1NC(=O)N=S(N)(=O)c1cnc(C(C)(C)O)s1)CCC2` (single isomer, unassigned) [Compound 650a, (R) or (S)-2-(2-Hydroxypropan-2-yl)-N′-((2-isopropyl-3-methyl-6,7-dihydro-5H-cyclopenta[b]pyridin-4-yl)carbamoyl)thiazole-5-sulfonimidamide], the IC50 fell in the range of 0.04 to 0.2 µM.
Still for that read-out and setting: as for `CCC1CCc2c1nc1c(c2NC(=O)N=S(N)(=O)c2ccn(C(F)F)n2)CCC1` (stereo not shown) [Compound 668, 1-(Difluoromethyl)-N′-((3-ethyl-1,2,3,5,6,7-hexahydrodicyclopenta[b,e]pyridin-8-yl)carbamoyl)-1H-pyrazole-3-sulfonimidamide], the figure is 5 to 30 µM; as for `CC(C)(O)c1sc(S(N)(=O)=NC(=O)Nc2c3c(nc4c2CCC4)CCC3)cc1Cl` (single isomer, unassigned) [Compound 688b, (S) or (R)-4-Chloro-N′-((1,2,3,5,6,7-hexahydrodicyclopenta [b,e]pyridin-8-yl)carbamoyl)-5-(2-hydroxypropan-2-yl)thiophene-2-sulfonimidamide], 5 to 30 µM; as for `CC(C)(O)c1cncc(S(N)(=O)=NC(=O)Nc2c3c(nc4c2CCC4(C)C)CCC3)c1` (single isomer, unassigned) [Compound 684b, (S) or (R)-N′-((3,3-dimethyl-1,2,3,5,6,7-hexahydrodicyclopenta [b,e]pyridin-8-yl)carbamoyl)-5-(2-hydroxypropan-2-yl)pyridine-3-sulfonimidamide], 5 to 30 µM.
Still for that read-out and setting: as for `CC1(C)CCc2c1nc1c(c2NC(=O)N=S(N)(=O)c2cnc(C(C)(O)CO)s2)CCC1` (single isomer, unassigned) [Compound 201e, (R, R) and (S, R) or (R, S) and (S, S)-2-(1,2-Dihydroxypropan-2-yl)-N′-((3,3-dimethyl-1,2,3.5.6.7-hexahydrodicyclopenta [b,e]pyridin-8-yl)carbamoyl)thiazole-5-sulfonimidamide], the figure is 0.04 to 0.2 µM; as for `Cc1c(C(C)C)nc2c(c1NC(=O)N=S(N)(=O)c1sc(C(C)(C)O)cc1F)CCC2` (single isomer, unassigned) [Compound 645b, (S) or (R)-3-Fluoro-5-(2-hydroxypropan-2-yl)-N′-((2-isopropyl-3-methyl-6,7-dihydro-5H-cyclopenta[b]pyridin-4-yl)carbamoyl) thiophene-2-sulfonimidamide], 5 to 30 µM.

The assay is the same for the next values; noted with them: Table B3; hTHP-1 assay, 2% fetal bovine serum; class symbols; read-out: IC50.
Turning to `CCn1cc(F)c(S(N)(=O)=NC(=O)Nc2c(C)c(C(F)(F)F)nc3c2CCC3)n1` (single isomer, unassigned) [Example 650, (S) or (R)-1-ethyl-4-fluoro-N′-((3-methyl-2-(trifluoromethyl)-6,7-dihydro-5H-cyclopenta[b]pyridin-4-yl)carbamoyl)-1H-pyrazole-3-sulfonimidamide], the IC50 is 1 to 5 µM.
Same read-out and setting: the same measure for `CCn1cc(F)c(S(N)(=O)=NC(=O)Nc2c3c(nc(C4CC4)c2C2CC2)CCC3)n1` (single isomer, unassigned) [Example 707, (R) or (S)-N′-((2,3-dicyclopropyl-6,7-dihydro-5H-cyclopenta[b]pyridin-4-yl)carbamoyl)-1-ethyl-4-fluoro-1H-pyrazole-3-sulfonimidamide]: 0.008 to 0.04 µM.
Still for that read-out and setting: the same measure for `CC(C)(O)c1csc(S(N)(=O)=NC(=O)Nc2c3c(nc(C(F)(F)F)c2C2CC2)CCC3)c1` (single isomer, unassigned) [Example 645, (S) or (R)-N′-((3-cyclopropyl-2-(trifluoromethyl)-6,7-dihydro-5H-cyclopenta[b]pyridin-4-yl)carbamoyl)-4-(2-hydroxypropan-2-yl) thiophene-2-sulfonimidamide]: 5 to 30 µM.

Source of the values: patent US20230031406A1, “COMPOUNDS AND COMPOSITIONS FOR TREATING CONDITIONS ASSOCIATED WITH NLRP ACTIVITY” (Novartis AG, priority 2018, published 2023).
